Source: ChEMBL document CHEMBL1201862, “PubChem BioAssay data set” (2004)
Active and inactive are the calls of the source.

Legend:
[1] = biological target: Serine/threonine-protein phosphatase PP1-alpha catalytic subunit (Homo sapiens, UniProt P62136); test: PP1 phosphatase inhibitors, dose response, biochemical, fluorescence (AID 2394)
[2] = biological target: T1, Serine/threonine-protein phosphatase (Homo sapiens, UniProt Q9BPW0); test: PP5 phosphatase inhibitors, dose response, biochemical, fluorescence (AID 2395)
T1 sequence (Q9BPW0 whole entry): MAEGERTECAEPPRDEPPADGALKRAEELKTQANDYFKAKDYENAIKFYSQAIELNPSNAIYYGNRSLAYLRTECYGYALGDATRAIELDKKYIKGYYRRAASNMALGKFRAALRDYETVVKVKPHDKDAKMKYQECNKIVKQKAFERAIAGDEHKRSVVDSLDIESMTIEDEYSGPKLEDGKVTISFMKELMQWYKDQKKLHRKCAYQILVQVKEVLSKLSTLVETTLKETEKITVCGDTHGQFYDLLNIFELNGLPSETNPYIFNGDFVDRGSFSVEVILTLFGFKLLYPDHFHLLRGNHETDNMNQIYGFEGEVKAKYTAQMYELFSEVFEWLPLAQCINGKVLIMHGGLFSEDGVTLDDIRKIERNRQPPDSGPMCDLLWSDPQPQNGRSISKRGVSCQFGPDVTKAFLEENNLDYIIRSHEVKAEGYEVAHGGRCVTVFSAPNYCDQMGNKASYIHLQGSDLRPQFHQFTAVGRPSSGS

[3] = inhibitors of firefly luciferase expression or activity, dose response, H4 neuroglioma cells, luminescence (AID 1990); type: functional, cell-based
[4] = Luminescence Cell-Based Dose Response HTS to Identify Inhibitors of 5'UTR Stem-Loop Driven Prion Protein mRNA Translation in H4 Neuroglioblastoma Cells. [Related pubchem assays: 1827 (Project Summary), 1813 (Primary HTS)]; type: functional
Vero [5] = test: host cell cytotoxicity of antiviral hits, dose response, cytotoxicity control for West Nile virus antiviral project, secondary assay (AID 1650); type: functional; conditions: Chlorocebus sabaeus
[6] = inhibitors of SNCA 5'UTR-driven reporter translation, confirmation, H4 neuroglioma cells, luminescence (AID 1988); type: functional, cell-based
Vero [7] = test: West Nile virus antiviral activity, cell-based, CPE readout (AID 1621); type: functional; conditions: Chlorocebus sabaeus
Vero [8] = test: cells; type: functional; conditions: Chlorocebus sabaeus
[9] = Luminescence Cell-Based Dose Confirmation HTS to Identify Activators of 5'UTR Stem-Loop Driven Alpha-Synuclein mRNA Translation in H4 Neuroglioblastoma Cells. [Related pubchem assays: 1829 (Project Summary), 1814 (Primary HTS)]; type: functional
[10] = Luminescence Cell-Based Dose Response HTS to Identify Activators of Luciferase Translation or Activity in H4 […] Cells. [Related pubchem assays: 1829 (Project Summary), 1814 (Primary HTS)]; type: functional
H4 = test: Luminescence Cell-Based Dose Response HTS to Identify Activators of 5'UTR Stem-Loop Driven Prion Protein mRNA Translation in H4 Neuroglioblastoma Cells. [Related pubchem assays: 1829 (Project Summary), 1814 (Primary HTS)]; type: functional; conditions: Homo sapiens
[11] = Luminescence Cell-Based Dose Retest to Confirm Inhibitors of Cancer Stem Cells. [Related pubchem assays (depositor defined):AID2717, AID2721]; type: functional; conditions: Homo sapiens
[12] = biological target: T2, Microphthalmia-associated transcription factor (Homo sapiens, UniProt O75030); test: TRPM1 promoter luciferase signal decrease, dose response, MITF inhibitor project, cell-based, SK-MEL-5, cherry-picked, set 3 (AID 493073); type: functional
T2 sequence (O75030 whole entry): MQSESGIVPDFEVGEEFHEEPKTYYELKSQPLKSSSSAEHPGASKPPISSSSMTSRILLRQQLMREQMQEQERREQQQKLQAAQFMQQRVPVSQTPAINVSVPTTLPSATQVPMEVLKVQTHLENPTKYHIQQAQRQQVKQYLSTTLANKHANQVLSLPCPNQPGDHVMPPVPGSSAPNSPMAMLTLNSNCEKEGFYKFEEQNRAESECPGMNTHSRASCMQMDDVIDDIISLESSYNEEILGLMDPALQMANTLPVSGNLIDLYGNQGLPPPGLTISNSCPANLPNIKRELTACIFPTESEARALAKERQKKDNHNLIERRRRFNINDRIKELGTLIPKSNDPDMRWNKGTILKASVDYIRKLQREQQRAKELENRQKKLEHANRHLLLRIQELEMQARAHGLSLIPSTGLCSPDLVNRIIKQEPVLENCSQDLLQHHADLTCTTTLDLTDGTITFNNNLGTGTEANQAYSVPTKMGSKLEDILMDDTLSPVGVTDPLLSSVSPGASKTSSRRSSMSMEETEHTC

[13] = biological target: Mitogen-activated protein kinase 10 (Homo sapiens, UniProt P53779); test: Dose response biochemical screening assay for inhibitors of c-Jun N-Terminal Kinase 3 (JNK3). [Related pubchem assays: 746 ]
Sequence of Mitogen-activated protein kinase 10 (P53779 whole entry): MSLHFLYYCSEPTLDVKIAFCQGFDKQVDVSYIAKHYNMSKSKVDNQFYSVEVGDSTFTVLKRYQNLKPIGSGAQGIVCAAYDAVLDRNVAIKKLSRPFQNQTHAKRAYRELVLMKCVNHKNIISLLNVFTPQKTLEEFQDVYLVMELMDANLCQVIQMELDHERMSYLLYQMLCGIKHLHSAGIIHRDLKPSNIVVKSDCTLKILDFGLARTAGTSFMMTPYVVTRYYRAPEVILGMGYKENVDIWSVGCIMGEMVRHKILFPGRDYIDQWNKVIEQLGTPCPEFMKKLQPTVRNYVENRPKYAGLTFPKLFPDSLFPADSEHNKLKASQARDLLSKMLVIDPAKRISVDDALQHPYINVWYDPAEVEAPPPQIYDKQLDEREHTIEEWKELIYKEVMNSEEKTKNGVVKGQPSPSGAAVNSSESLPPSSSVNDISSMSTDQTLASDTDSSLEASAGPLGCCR

[14] = biological target: T3, Aryl hydrocarbon receptor (Homo sapiens, UniProt P35869); test: Luminescence-based cell-based high throughput dose response assay for activators of the Aryl Hydrocarbon Receptor (AHR). [Related pubchem assays: 2796 (Primary screen (AHR activators in singlicate)), 2845 (Confirmation screen (AHR activators in triplicate)), 434939 (Counterscreen (PXR activators in triplicate)), 2804 (Summary (AHR activators))]; type: ADME
T3 sequence (P35869 whole entry): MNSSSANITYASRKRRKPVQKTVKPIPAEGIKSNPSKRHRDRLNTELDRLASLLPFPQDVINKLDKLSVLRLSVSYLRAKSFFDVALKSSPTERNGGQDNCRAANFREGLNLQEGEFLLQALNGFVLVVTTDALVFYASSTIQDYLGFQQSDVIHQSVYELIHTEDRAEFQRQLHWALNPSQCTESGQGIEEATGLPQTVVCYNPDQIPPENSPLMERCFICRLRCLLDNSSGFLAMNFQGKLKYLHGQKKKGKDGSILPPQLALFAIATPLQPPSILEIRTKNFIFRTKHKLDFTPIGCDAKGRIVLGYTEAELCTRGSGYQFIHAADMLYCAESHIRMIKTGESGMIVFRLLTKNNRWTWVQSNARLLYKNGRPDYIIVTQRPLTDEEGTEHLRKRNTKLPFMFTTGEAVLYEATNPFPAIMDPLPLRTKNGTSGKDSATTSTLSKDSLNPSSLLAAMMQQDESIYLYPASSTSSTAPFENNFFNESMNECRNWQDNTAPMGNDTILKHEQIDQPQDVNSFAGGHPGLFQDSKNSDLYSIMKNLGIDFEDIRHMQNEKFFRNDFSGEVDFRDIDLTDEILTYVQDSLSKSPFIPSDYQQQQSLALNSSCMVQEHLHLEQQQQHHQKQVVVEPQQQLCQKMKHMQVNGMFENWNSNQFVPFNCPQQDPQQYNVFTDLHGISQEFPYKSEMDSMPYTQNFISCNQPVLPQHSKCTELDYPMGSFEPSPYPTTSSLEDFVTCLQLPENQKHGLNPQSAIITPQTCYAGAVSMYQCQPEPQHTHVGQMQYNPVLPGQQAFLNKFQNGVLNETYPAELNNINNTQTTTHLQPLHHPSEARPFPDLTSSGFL

[15] = biological target: FAD-linked sulfhydryl oxidase ALR (Homo sapiens, UniProt P55789); test: inhibitors of human ALR sulfhydryl oxidase, dose response, biochemical, H2O2 detection, luminescence, cherry-pick (AID 493248)
Sequence of FAD-linked sulfhydryl oxidase ALR (P55789 whole entry): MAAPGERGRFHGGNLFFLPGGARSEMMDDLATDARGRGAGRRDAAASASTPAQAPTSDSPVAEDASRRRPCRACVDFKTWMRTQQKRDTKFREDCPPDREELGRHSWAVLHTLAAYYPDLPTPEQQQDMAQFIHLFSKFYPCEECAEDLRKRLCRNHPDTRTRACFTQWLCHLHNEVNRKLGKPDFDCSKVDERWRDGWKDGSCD

Sequence of Serine/threonine-protein phosphatase PP1-alpha catalytic subunit (P62136 whole entry): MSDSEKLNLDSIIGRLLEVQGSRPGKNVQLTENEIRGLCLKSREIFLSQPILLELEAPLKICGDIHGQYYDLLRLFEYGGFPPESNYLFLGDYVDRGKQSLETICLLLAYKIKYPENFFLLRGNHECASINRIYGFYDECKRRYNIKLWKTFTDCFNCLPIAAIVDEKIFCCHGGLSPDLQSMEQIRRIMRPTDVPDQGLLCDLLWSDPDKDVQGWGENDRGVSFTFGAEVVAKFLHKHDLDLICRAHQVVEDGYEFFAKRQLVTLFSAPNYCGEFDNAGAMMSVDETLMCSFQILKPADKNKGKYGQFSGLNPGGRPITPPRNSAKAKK

COC(=O)CCC(=O)OC1(C)C(=O)C2=CN(CC(C)C)C(c3ccc(OC)cc3)=CC2=C(Br)C1=O (stereo not drawn)
IC50 [1]: 28.3 µM (not active) | IC50 [2]: 37.5 µM (not active)

COc1ccc(C2c3ccc4ccccc4c3Oc3ncn(CCN4CCOCC4)c(=N)c32)cc1OC (stereo not drawn)
EC50 [3]: > 120 µM (not active) | EC50 [4]: 33.4 µM (active) | CC50 (Vero [5]): > 100 µM (active) | EC50 [6]: 9.75 µM (active) | IC50 (Vero [7]): 31.4 µM (active) | CC50 (Vero [8]): 23.8 µM (active)

C=C1C(=O)C=C[C@]2(C)C[C@@H]3OC(=O)[C@](C)(O)[C@H]3C[C@@H]12
EC50 [9]: 0.106 µM (active) | EC50 [10]: 0.153 µM (active) | EC50 (H4): 0.887 µM (active) | CC50 (Vero [5]): 10.8 µM (active) | IC50 (Vero [7]): 24.7 µM (active) | AC50 [11]: 4.35 µM (active) | AC50 [12]: 10.3 µM (active)

c1ccc2nc3c(nc2c1)c1ccccc1n3CCN1CCOCC1
IC50 [13]: > 93.1 µM (not active)

COc1ccccc1C(=O)Nc1ccc(N2CCCCC2)cc1
EC50 [14]: 2.91 µM (active) | AC50 [15]: 13.4 µM (active)
